{
  "source": "paper PMC10380083",
  "about": "“Synthesis of Prostate-Specific Membrane Antigen-Targeted Bimodal Conjugates of Cytotoxic Agents and Antiandrogens and Their Comparative Assessment with Monoconjugates” (International Journal of Molecular Sciences, 2023)",
  "key": {"[1]": {"test_system": "22Rv1 human prostate carcinoma xenograft", "conditions": "22Rv1 xenograft; for tumor volume V±m: i.v. triple injection, single dose 132.3 nM/kg; for Tumor growth inhibition: i.v. 132.3 nM/kg three times", "protocol": "(§1) We carried out in vivo studies of the efficacy of the obtained bimodal conjugates. […] Also, conjugate I (Figure 5) was used as a reference compound. An isotonic (0.9%) sodium chloride solution was used as a negative control. Studies were carried out in xenograft models of 22Rv1 human prostate carcinoma and PC-3 prostate adenocarcinoma in immunodeficient Balb/c nude mice (male).\n(§2) Two cell lines were used: human prostate carcinoma 22Rv1 and prostate adenocarcinoma PC-3 (ATCC collection). Cells were cultured in 75 cm^2 vials (Costar, Washington, DC, USA) in RPMI-1640 medium (PanEco, Russia) with the addition of 2 mM L-glutamine (PanEco, Russia) and 10% fetal calf serum (HyClone, Logan, UT, USA) under standard conditions of cultivation (in a humidified atmosphere at 37 °C and 5% CO2). Cells of 6–10 passages were used to inoculate the animals. Cell suspension was prepared with a concentration of 5 × 10^6 cells in 0.05 mL of the 22Rv1 medium and in 0.1 mL of the PC-3 medium. 22Rv1 cells were inoculated into animals in Matrigel (BD Matrigel Basement Membrane Matrix, BD Biosciences, San Jose, CA, USA). Manipulations with Matrigel were performed on a refrigerated plate using precooled materials, tubes and instrumentation. For animal administration, 50 μL of the cell suspension (5 × 10^6 cells) was transferred to a chilled tube containing 50 μL of Matrigel; after mixing, the cellular material (final volume of 100 μL) was injected subcutaneously into the groin area of the animal. To obtain subcutaneous xenograft PC-3, a 5 × 10^6 suspension of tumor cells was inoculated subcutaneously into the inguinal cavity of male mice in a volume of 0.1 mL.\n(§3) To study the antitumor efficacy, conjugates were administered intravenously at a dose of 132.3 nM/kg to tumor-bearing mice three times at five-day intervals; administration was started 7−8 days after cell inoculation, and the tumor size was 70−90 mm^3. As a control substance, 0.9% sodium chloride solution was used. Experimental groups included five animals each. […] The mixture was dissolved in DMSO (5% of final solution) and diluted with hemodesum (30% low-molecular-weight polyvinylpyrrolidone (Mw = 8000 ± 200) saline infusion solution). The presence of tumors and their sizes, as well as the body weights of the mice, were recorded every five days during the observation of the animals. The antitumor effect was assessed by comparing the tumor volumes in the experimental and control groups as well as the amount of tumor growth inhibition (TGI, %).\n(§4) Tumor volume was calculated using Formula (1):V = d1 × d2 × d3 × 0.52(1) where d1, d2 and d3 are the three mutually perpendicular dimensions of the tumor. […]\n(§5) 3.2.1. In vivo evaluation of antitumor efficacy […]\n(§6) intravenously at a dose of 132.3 nM/kg to tumor-bearing mice three times at 5-day intervals, the administration was started 7-8 days after cell inoculation to animals, tumor size was 70-90 mm3.\n(§7) A 0.9% sodium chloride solution was used as a control substance. The experimental groups […]\n(§8) The presence of tumor masses and their size, as well as the body weight of the mice, were recorded every 5 days during observation. In accordance with humane principles, animals were euthanized by placing the mice in a CO2 inhalation chamber (ZOONLAB GmbH, Germany)."}, "[2]": {"test_system": "PC-3 prostate adenocarcinoma xenograft", "conditions": "PC-3 xenograft; for tumor volume V±m: i.v. triple injection, single dose 132.3 nM/kg; for Tumor growth inhibition: i.v. 132.3 nM/kg three times", "protocol": "as §1, §2, §3, §4, §5, §6, §7, §8"}, "[3]": {"assay": "Body weight, general condition and mortality in the antitumor efficacy study", "conditions": "i.v. 132.3 nM/kg x3", "protocol": "Animal body weight data are presented in Table S2 in the electronic supplementary materials.\nas §3, with “%). […]” for “%).”\nas §5, §6, §7, §8\nConjugate Method of injection Dose Number of animals 22Rv1 PC-3 […]\n3.4. In vivo Efficacy Evaluation\nDays after tumor implantation / mass± error, g\nConjugate 7 day 12 day 17 day […]\ninjection) injection) injection)\nHuman prostate carcinoma 22Rv1\nHuman prostate adenocarcinoma PC-3\nTable S3. Tumor growth dynamics of 22Rv1 and PC-3 in mice with intravenous triple injection of […]\nate Days after tumor implantation / V±m, mm3"}, "[4]": {"conditions": "7 day after tumor implantation (1st injection)"}, "[5]": {"conditions": "12 day after tumor implantation (2nd injection)"}, "[6]": {"conditions": "22 day after tumor implantation"}, "[7]": {"conditions": "33 day after tumor implantation"}, "[8]": {"conditions": "37 day after tumor implantation"}, "[9]": {"conditions": "days after the start of treatment: 1"}, "[10]": {"conditions": "days after the start of treatment: 5"}, "[11]": {"conditions": "days after the start of treatment: 10"}, "[12]": {"conditions": "days after the start of treatment: 16"}, "[13]": {"conditions": "days after the start of treatment: 20"}},
  "note": "Read-outs that look alike come from different tables or passages of the source. *1 amine or outer side, *2 acyl side, *3 side chain or, on linkers, in order; H or OH if unused. Where a SMILES comes first, the peptide text is derived from it. [ ]: non-standard residue; d: D form. The star is where a group is joined. GluureaLys(ε-3-ClBenzyl) = O=C(O)CC[C@H](NC(=O)N[C@@H](CCCCN(Cc1cccc(Cl)c1)*)C(=O)O)C(=O)O; X4 = C[C@]12CC[C@H](OC(=O)CCC(=O)*)CC1=CC[C@@H]1[C@@H]2CC[C@]2(C)C(c3cccnc3)=CC[C@@H]12; Dolaproine = CO[C@@H]([C@@H]1CCCN1)[C@@H](C)C(=O)O; Dil = CC[C@H](C)[C@H](NC)[C@@H](CC(=O)O)OC; X2 = O=C(CCCc1cn(CCCN[*:1])nn1)[*:2]; PABC = O=C(OCc1ccc(N[*:1])cc1)[*:2]; X1 = C[C@@H](N*)[C@@H](O)c1ccccc1; Cit = NC(=O)NCCC[C@H](N)C(=O)O; Suc = O=C(CCC(=O)[*:2])[*:1]; NMeV = CN[C@H](C(=O)O)C(C)C; Ahx = NCCCCCC(=O)O",
  "data": [
    {"smiles": "CC[C@H](C)[C@@H]([C@@H](CC(=O)N1CCC[C@H]1[C@H](OC)[C@@H](C)C(=O)N[C@H](C)[C@@H](O)c1ccccc1)OC)N(C)C(=O)[C@@H](NC(=O)[C@H](C(C)C)N(C)C(=O)OCc1ccc(NC(=O)[C@H](CCCNC(N)=O)NC(=O)[C@@H](NC(=O)CCCc2cn(CCCNC(=O)[C@H](CCCCNC(=O)CCC(=O)O[C@H]3CC[C@@]4(C)C(=CC[C@@H]5[C@@H]4CC[C@]4(C)C(c6cccnc6)=CC[C@@H]54)C3)NC(=O)[C@H](Cc3ccc(O)cc3)NC(=O)[C@H](Cc3ccccc3)NC(=O)CCC(=O)NCCCCCC(=O)N(CCCC[C@H](NC(=O)N[C@@H](CCC(=O)O)C(=O)O)C(=O)O)Cc3cccc(Cl)c3)nn2)C(C)C)cc1)C(C)C", "note": "[13a] ({GluureaLys(ε-3-ClBenzyl)-Ahx-Suc}-FYK(X4)[X2]V[Cit][PABC][NMeV]V[Dil][Dolaproine]-X1)", "values": [
      {"measurement": "tumor volume V±m", "setting": "[1]; [4]", "value": "69.6±17.0", "unit": "mm3"},
      {"measurement": "tumor volume V±m", "setting": "[1]; [5]", "value": "77.2±9.3", "unit": "mm3"},
      {"measurement": "tumor volume V±m", "setting": "[1]; 17 day after tumor implantation (3rd injection)", "value": "81.4±25.8", "unit": "mm3"},
      {"measurement": "tumor volume V±m", "setting": "[1]; [6]", "value": 121.7, "unit": "mm3"},
      {"measurement": "tumor volume V±m", "setting": "[1]; [7]", "value": 391.6, "unit": "mm3"},
      {"measurement": "tumor volume V±m", "setting": "[1]; [8]", "value": 784.0, "unit": "mm3"},
      {"measurement": "Tumor growth inhibition", "setting": "[1]; [9]", "value": 62.0, "unit": "%"},
      {"measurement": "Tumor growth inhibition", "setting": "[1]; [10]", "value": 77.1, "unit": "%"},
      {"measurement": "Tumor growth inhibition", "setting": "[1]; [11]", "value": 80.4, "unit": "%"},
      {"measurement": "Tumor growth inhibition", "setting": "[1]; [12]", "value": 80.6, "unit": "%"},
      {"measurement": "Tumor growth inhibition", "setting": "[1]; [13]", "value": 72.6, "unit": "%"},
      {"measurement": "tumor volume V±m", "setting": "[2]; [4]", "value": "82.2±5.9", "unit": "mm3"},
      {"measurement": "tumor volume V±m", "setting": "[2]; [5]", "value": 127.5, "unit": "mm3"},
      {"measurement": "tumor volume V±m", "setting": "[2]; [6]", "value": 292.5, "unit": "mm3"},
      {"measurement": "tumor volume V±m", "setting": "[2]; 27 day after tumor implantation", "value": 463.1, "unit": "mm3"},
      {"measurement": "tumor volume V±m", "setting": "[2]; [7]", "value": 958.0, "unit": "mm3"},
      {"measurement": "tumor volume V±m", "setting": "[2]; [8]", "value": 1684.0, "unit": "mm3"},
      {"measurement": "Tumor growth inhibition", "setting": "[2]; [9]", "value": 36.2, "unit": "%"},
      {"measurement": "Tumor growth inhibition", "setting": "[2]; [10]", "value": 40.0, "unit": "%"},
      {"measurement": "Tumor growth inhibition", "setting": "[2]; [11]", "value": 44.9, "unit": "%"},
      {"measurement": "Tumor growth inhibition", "setting": "[2]; [12]", "value": 29.5, "unit": "%"},
      {"measurement": "Tumor growth inhibition", "setting": "[2]; [13]", "value": 38.3, "unit": "%"},
      {"measurement": "TGI, did not exceed", "setting": "[2]; i.v. 132.3 nM/kg three times at five-day intervals, male Balb/c nude mice", "value": "≤ 44.9", "unit": "%"},
      {"measurement": "body weight, mass ± error", "setting": "[3]; 22Rv1 xenograft mice, 7 day after tumor implantation (1st injection)", "value": "22.3 ± 1.3", "unit": "g"},
      {"measurement": "body weight, mass ± error", "setting": "[3]; 22Rv1 xenograft mice, 12 day after tumor implantation (2nd injection)", "value": "22.5 ± 1.4", "unit": "g"},
      {"measurement": "body weight, mass ± error", "setting": "[3]; 22Rv1 xenograft mice, 17 day after tumor implantation (3rd injection)", "value": "22.2 ± 1.4", "unit": "g"},
      {"measurement": "body weight, mass ± error", "setting": "[3]; 22Rv1 xenograft mice, 22 day after tumor implantation", "value": "22.2 ± 1.4", "unit": "g"},
      {"measurement": "body weight, mass ± error", "setting": "[3]; 22Rv1 xenograft mice, 27 day after tumor implantation", "value": "22.5 ± 1.3", "unit": "g"},
      {"measurement": "body weight, mass ± error", "setting": "[3]; 22Rv1 xenograft mice, 33 day after tumor implantation", "value": "22.7 ± 1.3", "unit": "g"},
      {"measurement": "body weight, mass ± error", "setting": "[3]; 22Rv1 xenograft mice, 37 day after tumor implantation", "value": "22.7 ± 1.3", "unit": "g"},
      {"measurement": "body weight, mass ± error", "setting": "[3]; PC-3 xenograft mice, 7 day after tumor implantation (1st injection)", "value": "24.9 ± 1.2", "unit": "g"},
      {"measurement": "body weight, mass ± error", "setting": "[3]; PC-3 xenograft mice, 12 day after tumor implantation (2nd injection)", "value": "24.7 ± 1.5", "unit": "g"},
      {"measurement": "body weight, mass ± error", "setting": "[3]; PC-3 xenograft mice, 17 day after tumor implantation (3rd injection)", "value": "24.8 ± 1.4", "unit": "g"},
      {"measurement": "body weight, mass ± error", "setting": "[3]; PC-3 xenograft mice, 22 day after tumor implantation", "value": "25.0 ± 1.4", "unit": "g"},
      {"measurement": "body weight, mass ± error", "setting": "[3]; PC-3 xenograft mice, 27 day after tumor implantation", "value": "25.1 ± 1.3", "unit": "g"},
      {"measurement": "body weight, mass ± error", "setting": "[3]; PC-3 xenograft mice, 33 day after tumor implantation", "value": "25.2 ± 1.2", "unit": "g"},
      {"measurement": "body weight, mass ± error", "setting": "[3]; PC-3 xenograft mice, 37 day after tumor implantation", "value": "25.3 ± 1.2", "unit": "g"}
    ]}
  ]
}
